Measured values: patent US9556231B2, “Beta-hairpin peptidomimetics as CXC4 antagonists” (POLYPHOR AG, priority 2011, dated 2017)
Read-outs that look alike come from different tables or passages of the source. Bridge positions count the residues as written; N and C are the ends. Square brackets hold non-standard residues; d marks the D form. Peptide text beside a SMILES is read from it. Lys(iPr) = CC(C)NCCCC[C@H](N)C(=O)O; Orn(iPr) = CC(C)NCCC[C@H](N)C(=O)O; Dab = NCC[C@H](N)C(=O)O

How the values were obtained:
Plasma protein binding = format: in vitro ADME; settings: for fraction unbound: human, plasma; for fraction unbound at 1 h, 10 μM: human plasma
Protocol: 495 μL aliquots of human plasma (Basler Blutspendedienst) as well as 495 μL aliquots of PBS were placed in individual deepwells of a polypropylene plate (Greiner) and spiked each with 5 μL of 1 mM solutions of peptides in 90% DMSO. After shaking the plate for 2 min at 600 rpm 150 μL aliquots of the plasma/peptide mixtures were transferred in triplicates to the polypropylene filter plate (10 kDa, Millipore) whereas 150 μL aliquots of the PBS/peptide mixtures were transferred either to the individual wells of the filter plate (filtered controls) or directly into the individual wells of the receiving plate (Greiner) (non-filtered controls). The plate sandwich consisting of filter and receiving plate was incubated for 1 h at 37° C. and subsequently centrifuged at 3220 g for 2 h at 15° C. The filtrates in the receiving plate were analysed by LC/MS as follows: Column: Waters, XBridge C18, mobile phases: (A) water+0.1% formic acid and (B) acetonitrile/water, 95/5 (v/v)+0.1% formic acid, gradient: 5%-100% (B) in 1.8 min, electrospray ionization, MRM detection (triple quadrupole). The peak areas were determined and triplicate values are averaged. The binding is expressed in percent of the filtered and non-filtered controls by 100−(100×T1h/Tctr). Finally the average of these values is calculated.

[1] = Plasma stability, mouse plasma; format: in vitro ADME; settings: 37° C.; for remaining at 24 h / remaining at 24 h, 10 μM: 1440 min, read-out: mouse pl. cpd left at 1440 min; for mouse pl. T1/2: up to 1440 min
Protocol: (§1) The stability of the peptides in human and mouse plasma was determined by applying the following method: 346.5 μL/deep well of freshly thawed human plasma (Basler Blutspende-dienst) and mouse plasma (Harlan Sera-Lab, UK), respectively, were spiked with 3.5 μL/well of compound dissolved in DMSO/H2O (90/10 [v/v], 1 mM, triplicate) and incubated at 37° C. At t=0, 15, 30, 60, 120, 240 and 1440 min aliquots of 50 μL were transferred to filtration plate wells containing 150 μL/well of 2% formic acid in acetonitrile. Following shaking for 2 min the occurred suspensions were filtrated by vacuum. 100 μL of each filtrate were transferred to a propylene microtiter plate and dried under N2. The residual solids were reconstituted by adding 100 μL/well of water/acetonitrile, 95/5 (v/v)+0.2% formic acid and analyzed by LC/MS as follows: Column: Waters, XBridge C18, mobile phases: (A) water+0.1% formic acid and (B) acetonitrile/water, 95/5 (v/v)+0.1% formic acid, gradient: 5%-100% (B) in 1.8 minutes, electrospray ionization, MRM detection (triple quadrupole). The peak areas were determined and triplicate values are averaged. The stability is expressed in percent of the initial value at t=0·(tx/t0×100). By using the TREND function of EXCEL (Microsoft Office 2003) T1/2 were determined.

[2] = Cytotoxicity, MTT reduction assay, HELA cells; format: cell-based; settings: human
Protocol: Namalwa cells (CXCR4 natively expressing non-adherent cells, ATCC CRL-1432) were cultured in RPMI1640 plus 10% FBS, and pen/strept. HELA cells were maintained in RPMI1640 plus 10% FBS, pen/strept and 2 mM L-glutamine. Cos-7 cells were grown in DMEM medium with […] glucose supplemented with 10% FCS, pen/strept and 2 mM L-glutamine. All cell lines were grown at 37° C. at 5% CO2. Cell media, media supplements, PBS-buffer, HEPES, antibiotic/antimycotic, pen/strept, non essential amino acid, L-glutamine, β-mercaptoethanol and sera were purchased from Gibco (Pailsey, UK). All fine chemicals were supplied by Merck (Darmstadt, Germany).
The cytotoxicity of the peptides to HELA cells (Acc57) and COS-7 cells (CRL-1651) was determined using the MTT reduction assay (T. Mossman, J. Immunol. Meth. 1983, 65, 55-63; M. V. Berridge, A. S. Tan, Arch. Biochem. Biophys. 1993, 303, 474-482). Briefly, the method was as follows: 4000 HELA cells/well and 3400 COS-7 cells/well were seeded and grown in 96-well microtiter plates for 24 h at 37° C. at 5% CO2. Thereafter, time zero (Tz) was determined by MTT reduction (see below). The supernatant of the remaining wells was discarded, and fresh medium and compounds in serial dilutions (12.5, 25 and 50 μM, triplicates; 0 μM, blank) were pipetted into the wells. After incubation of the cells for 48 h at 37° C. at 5% CO2 the supernatant was discarded again and 100 μL MTT reagent (0.5 mg/mL in RPMI1640 and DMEM, respectively)/well was added. Following incubation at 37° C. for 2-4 h the media were aspirated and the cells were spiked (100 μL isopropanol/well). The absorbance of the solubilized formazan was measured at 595 nm (OD595peptide). For each concentration averages were calculated from triplicates. The percentage of growth was calculated as follows: (OD595peptide−OD595Tz)/(OD595blank−OD595Tz)×100%. The GI50 (Growth Inhibition) concentrations were calculated for each peptide by using a trend line function for the concentrations (50, 25, 12.5 and 0 μM), the corresponding percentages and the value 50, (=TREND (C50:C0,%50:%0,50).

[3] = Plasma stability, human plasma; format: in vitro ADME; settings: 37° C., 1440 min, read-out: human pl. cpd left at 1440 min
Protocol: as §1

[4] = ultrafiltration 10 kDa, read-out: Plasma protein binding (converted)
[5] = MTT, 48 h, up to 50 μM, read-out: Cytotoxicity Hela Cells GI50

Row | SMILES | fraction unbound (Plasma protein binding; read-out: Fraction unbound, fu) | fraction unbound (Plasma protein binding; [4]) | remaining at 24 h [1] [%] | mouse pl. T1/2 [1] [h] | GI50 at 48 h [2] [µM] | remaining at 24 h [3] [%] | fraction unbound at 1 h, 10 μM (Plasma protein binding; ultrafiltration 10 kDa) | remaining at 24 h, 10 μM [1] [%] | GI50 at 48 h [2, 5] [µM] | remaining at 24 h, 10 μM [3] [%]
1 | CC(C)NCCCC[C@@H]1NC(=O)[C@H](CCC(N)=O)NC(=O)[C@H](Cc2ccc(O)cc2)NC(=O)[C@@H]2CSSC[C@H](NC(=O)[C@H](Cc3ccc(O)cc3)NC(=O)[C@H](Cc3c[nH]cn3)NC(=O)[C@H](Cc3ccc(O)cc3)NC(=O)[C@@H]3CCCN3C(=O)[C@H]3CCCN3C1=O)C(=O)N[C@@H](CO)C(=O)N[C@@H](C)C(=O)N1CCC[C@@H]1C(=O)N[C@@H](CCCNC(C)C)C(=O)N[C@@H](CCCNC(=N)N)C(=O)N[C@@H](Cc1ccc(O)cc1)C(=O)N2 [Ex. 1, cyclo(-Tyr^1-His^2-Tyr^3-Cys^4-Ser^5-Ala^6-^DPro^7-Orn(iPr)^8-Arg^9-Tyr^10-Cys^11-Tyr^12-Gln^13-Lys(iPr)^14-^DPro^15-Pro^16-) disulfide bond between Cys^4 and Cys^11] (cyclo(YHYCSA[dP][Orn(iPr)]RYCYQ[Lys(iPr)][dP]P); disulfide 4-11) | 0.7 | 0.7 | 100 | 24 | > 50 | 77 | – | – | – | –
2 | COc1ccc(C[C@@H]2NC(=O)[C@H](Cc3c[nH]cn3)NC(=O)[C@H](Cc3ccc(O)cc3)NC(=O)[C@@H]3CCCN3C(=O)[C@H]3CCCN3C(=O)[C@H](CCCCNC(C)C)NC(=O)[C@H](CCC(N)=O)NC(=O)[C@H](Cc3ccc(O)cc3)NC(=O)[C@@H]3CSSC[C@H](NC2=O)C(=O)N[C@@H](CO)C(=O)N[C@@H](C)C(=O)N2CCC[C@@H]2C(=O)N[C@@H](CCCNC(C)C)C(=O)N[C@@H](CCCNC(=N)N)C(=O)N[C@@H](Cc2ccc(O)cc2)C(=O)N3)cc1 [Ex. 2, cyclo(-Tyr^1-His^2-Tyr(Me)^3-Cys^4-Ser^5-Ala^6-^DPro^7-Orn(iPr)^8-Arg^9-Tyr^10-Cys^11-Tyr^12-Gln^13-Lys(iPr)^14-^DPro^15-Pro^16-), disulfide bond between Cys^4 and Cys^11] (cyclo(YHY(Me)CSA[dP][Orn(iPr)]RYCYQ[Lys(iPr)][dP]P); disulfide 4-11) | 0.52 | 0.52 | 100 | 24 | > 41 | 100 | – | – | – | –
3 | CC(C)NCCCC[C@@H]1NC(=O)[C@H](CCC(N)=O)NC(=O)[C@H](Cc2ccc(O)cc2)NC(=O)[C@@H]2CSSC[C@H](NC(=O)[C@H](C)NC(=O)[C@H](Cc3c[nH]cn3)NC(=O)[C@H](Cc3ccc(O)cc3)NC(=O)[C@@H]3CCCN3C(=O)[C@H]3CCCN3C1=O)C(=O)N[C@@H](CO)C(=O)N[C@@H](C)C(=O)N[C@H](Cc1ccc(O)cc1)C(=O)N[C@@H](CCN)C(=O)N[C@@H](CCCNC(=N)N)C(=O)N[C@@H](Cc1ccc(O)cc1)C(=O)N2 [Ex. 3, cyclo(-Tyr^1-His^2-Ala^3-Cys^4-Ser^5-Ala^6-^DTyr^7-Dab^8-Arg^9-Tyr^10-Cys^11-Tyr^12-Gln^13-Lys(iPr)^14-^DPro^15-Pro^16-), disulfide bond between Cys^4 and Cys^11] (cyclo(YHACSA[dY][Dab]RYCYQ[Lys(iPr)][dP]P); disulfide 4-11) | – | – | – | 24 | – | – | 0.52 | 98 | > 50 | 100
4 | COc1ccc(C[C@H]2NC(=O)[C@H](C)NC(=O)[C@H](CO)NC(=O)[C@@H]3CSSC[C@H](NC(=O)[C@H](Cc4ccc(O)cc4)NC(=O)[C@H](CCCNC(=N)N)NC(=O)[C@H](CCCNC(C)C)NC2=O)C(=O)N[C@@H](Cc2ccc(O)cc2)C(=O)N[C@@H](CCC(N)=O)C(=O)N[C@@H](CCCCNC(C)C)C(=O)N2CCC[C@@H]2C(=O)N2CCC[C@H]2C(=O)N[C@@H](Cc2ccc(O)cc2)C(=O)N[C@@H](Cc2c[nH]cn2)C(=O)N[C@@H](C)C(=O)N3)cc1 [Ex. 4, cyclo(-Tyr^1-His^2-Ala^3-Cys^4-Ser^5-Ala^6-^DTyr(Me)^7-Orn(iPr)^8-Arg^9-Tyr^10-Cys^11-Tyr^12-Gln^13-Lys(iPr)^14-^DPro^15-Pro^16-), disulfide bond between Cys^4 and Cys^11] (cyclo(YHACSA[dY](Me)[Orn(iPr)]RYCYQ[Lys(iPr)][dP]P); disulfide 4-11) | 0.44 | 0.44 | 60 | 24 | > 50 | 94 | – | – | – | –
5 | CC(C)NCCCC[C@@H]1NC(=O)[C@H](CCC(N)=O)NC(=O)[C@H](Cc2ccc(O)cc2)NC(=O)[C@@H]2CSSC[C@H](NC(=O)[C@H](Cc3ccc(O)cc3)NC(=O)[C@H](Cc3c[nH]cn3)NC(=O)[C@H](Cc3ccc(O)cc3)NC(=O)[C@@H]3CCCN3C(=O)[C@H]3CCCN3C1=O)C(=O)N[C@@H](CO)C(=O)N[C@@H](C)C(=O)N[C@H](Cc1ccc(O)cc1)C(=O)N[C@@H](CCCNC(C)C)C(=O)N[C@@H](CCCNC(=N)N)C(=O)N[C@@H](Cc1ccc(O)cc1)C(=O)N2 [Ex. 5, cyclo(-Tyr^1-His^2-Tyr^3-Cys^4-Ser^5-Ala^6-^DTyr^7-Orn(iPr)^8-Arg^9-Tyr^10-Cys^11-Tyr^12-Gln^13-Lys(iPr)^14-^DPro^15-Pro^16-), disulfide bond between Cys^4 and Cys^11] (cyclo(YHYCSA[dY][Orn(iPr)]RYCYQ[Lys(iPr)][dP]P); disulfide 4-11) | – | – | – | 24 | – | – | 0.46 | 81 | > 50 | 92
6 | COc1ccc(C[C@@H]2NC(=O)[C@H](Cc3c[nH]cn3)NC(=O)[C@H](Cc3ccc(O)cc3)NC(=O)[C@@H]3CCCN3C(=O)[C@H]3CCCN3C(=O)[C@H](CCCCNC(C)C)NC(=O)[C@H](CCC(N)=O)NC(=O)[C@H](Cc3ccc(O)cc3)NC(=O)[C@@H]3CSSC[C@H](NC2=O)C(=O)N[C@@H](CO)C(=O)N[C@@H](C)C(=O)N[C@H](Cc2ccc(OC)cc2)C(=O)N[C@@H](CCCNC(C)C)C(=O)N[C@@H](CCCNC(=N)N)C(=O)N[C@@H](Cc2ccc(O)cc2)C(=O)N3)cc1 [Ex. 6, cyclo(-Tyr^1-His^2-Tyr(Me)^3-Cys^4-Ser^5-Ala^6-^DTyr(Me)^7-Orn(iPr)^8-Arg^9-Tyr^10-Cys^11-Tyr^12-Gln^13-Lys(iPr)^14-^DPro^15-Pro^16-), disulfide bond between Cys^4 and Cys^11] (cyclo(YHY(Me)CSA[dY](Me)[Orn(iPr)]RYCYQ[Lys(iPr)][dP]P); disulfide 4-11) | – | – | – | 24 | – | – | 0.37 | 68 | > 50 | 83
